Laboratory results reported in PubChem BioAssay (NCI).
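Protocol summary: plate cells (96-well), add compound at 5 concentrations, incubate 48 h, interpolate endpoints linearly. Abbreviation: GI50, concentration required for 50% inhibition of growth. TGI: total growth inhibition.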

Legend:
Assay in all cases: inhibition of tumour cell growth, NCI panel, 48 h; in the data active = GI50 below about 0.43 µM; inactive = the rest
RPMI-8226 leukemia = test system: RPMI-8226 leukemia
SF-268 CNS = test system: SF-268 CNS
SNB-75 CNS = test system: SNB-75 CNS
MOLT-4 leukemia = test system: MOLT-4 leukemia
IGROV1 ovarian = test system: IGROV1 ovarian
OVCAR-5 ovarian = test system: OVCAR-5 ovarian
HL-60(TB) leukemia = test system: HL-60(TB) leukemia
NCI/ADR-RES ovarian = test system: NCI/ADR-RES ovarian
DU-145 prostate = test system: DU-145 prostate
MALME-3M melanoma = test system: MALME-3M melanoma
MCF7 breast = test system: MCF7 breast
U251 CNS = test system: U251 CNS
UACC-62 melanoma = test system: UACC-62 melanoma
NCI-H226 lung = test system: NCI-H226 lung
PC-3 prostate = test system: PC-3 prostate
NCI-H460 lung = test system: NCI-H460 lung
SK-MEL-5 melanoma = test system: SK-MEL-5 melanoma
A498 renal = test system: A498 renal
CAKI-1 renal = test system: CAKI-1 renal
HT29 colon = test system: HT29 colon
LOX IMVI melanoma = test system: LOX IMVI melanoma
T-47D breast = test system: T-47D breast
MDA-MB-231 breast = test system: MDA-MB-231 breast
SF-295 CNS = test system: SF-295 CNS
SK-MEL-28 melanoma = test system: SK-MEL-28 melanoma
SNB-19 CNS = test system: SNB-19 CNS
OVCAR-4 ovarian = test system: OVCAR-4 ovarian
UO-31 renal = test system: UO-31 renal
HCT-15 colon = test system: HCT-15 colon
HS 578T breast = test system: HS 578T breast
HOP-62 NSCLC = test system: HOP-62 NSCLC
SW-620 colon = test system: SW-620 colon
MDA-MB-435 = test system: MDA-MB-435
RXF 393 renal = test system: RXF 393 renal
HCT-116 colon = test system: HCT-116 colon
K-562 leukemia = test system: K-562 leukemia
HCC-2998 colon = test system: HCC-2998 colon
SR leukemia = test system: SR leukemia
TK-10 renal = test system: TK-10 renal
ACHN renal = test system: ACHN renal
KM12 colon = test system: KM12 colon
SF-539 CNS = test system: SF-539 CNS
786-0 renal = test system: 786-0 renal
SK-OV-3 ovarian = test system: SK-OV-3 ovarian
NCI-H23 lung = test system: NCI-H23 lung
SN12C renal = test system: SN12C renal
BT-549 breast = test system: BT-549 breast
M14 melanoma = test system: M14 melanoma
OVCAR-3 ovarian = test system: OVCAR-3 ovarian
SK-MEL-2 melanoma = test system: SK-MEL-2 melanoma
OVCAR-8 ovarian = test system: OVCAR-8 ovarian
COLO 205 colon = test system: COLO 205 colon
HOP-92 NSCLC = test system: HOP-92 NSCLC
NCI-H522 lung = test system: NCI-H522 lung
CCRF-CEM leukemia = test system: CCRF-CEM leukemia
UACC-257 melanoma = test system: UACC-257 melanoma
A549 NSCLC = test system: A549 NSCLC
EKVX NSCLC = test system: EKVX NSCLC

Cc1cc(C)c(C#N)c(Sc2nc(C)c([N+](=O)[O-])c(C)c2C#N)n1
10.5 µM: TGI (NCI-H226 lung) | TGI (OVCAR-8 ovarian)
61.2 µM: TGI (PC-3 prostate)
3.44 µM: TGI (LOX IMVI melanoma)
5.55 µM: TGI (RXF 393 renal) | TGI (COLO 205 colon)
11.8 µM: TGI (SF-268 CNS)
inactive: GI50 (RPMI-8226 leukemia) 2.84 µM | GI50 (SF-268 CNS) 3.26 µM | GI50 (SNB-75 CNS) 3.29 µM | GI50 (MOLT-4 leukemia) 3.03 µM | GI50 (IGROV1 ovarian) 3.3 µM | GI50 (OVCAR-5 ovarian) 4.03 µM | GI50 (HL-60(TB) leukemia) 2.63 µM | GI50 (NCI/ADR-RES ovarian) 4.01 µM | GI50 (DU-145 prostate) 2.95 µM | GI50 (MALME-3M melanoma) 2.27 µM | GI50 (MCF7 breast) 3.11 µM | GI50 (U251 CNS) 3.1 µM | GI50 (UACC-62 melanoma) 2.96 µM | GI50 (NCI-H226 lung) 2.99 µM | GI50 (PC-3 prostate) 4.67 µM | GI50 (NCI-H460 lung) 3.63 µM | GI50 (SK-MEL-5 melanoma) 4.02 µM | GI50 (A498 renal) 13.1 µM | GI50 (CAKI-1 renal) 2.17 µM | GI50 (HT29 colon) 3.71 µM | GI50 (LOX IMVI melanoma) 1.82 µM | GI50 (T-47D breast) 2.29 µM | GI50 (MDA-MB-231 breast) 4.7 µM | GI50 (SF-295 CNS) 14.2 µM | GI50 (SK-MEL-28 melanoma) 3.12 µM | GI50 (SNB-19 CNS) 15.1 µM | GI50 (OVCAR-4 ovarian) 2.27 µM | GI50 (UO-31 renal) 1.81 µM | GI50 (HCT-15 colon) 2.32 µM | GI50 (HS 578T breast) 2.44 µM | GI50 (HOP-62 NSCLC) 3.52 µM | GI50 (SW-620 colon) 2.07 µM | GI50 (MDA-MB-435) 2.1 µM | GI50 (RXF 393 renal) 2.16 µM | GI50 (HCT-116 colon) 1.94 µM | GI50 (K-562 leukemia) 2.9 µM | GI50 (HCC-2998 colon) 4.66 µM | GI50 (SR leukemia) 2.94 µM | GI50 (TK-10 renal) 3.27 µM | GI50 (ACHN renal) 1.75 µM | GI50 (KM12 colon) 3.98 µM | GI50 (SF-539 CNS) 2.43 µM | GI50 (786-0 renal) 5.04 µM | GI50 (SK-OV-3 ovarian) 3.76 µM | GI50 (NCI-H23 lung) 2.87 µM | GI50 (SN12C renal) 2.26 µM | GI50 (BT-549 breast) 2.66 µM | GI50 (M14 melanoma) 3.07 µM | GI50 (OVCAR-3 ovarian) 2.01 µM | GI50 (SK-MEL-2 melanoma) 2.21 µM | GI50 (OVCAR-8 ovarian) 3.03 µM | GI50 (COLO 205 colon) 2.58 µM | GI50 (HOP-92 NSCLC) 2.68 µM
10.8 µM: TGI (U251 CNS) | TGI (HT29 colon)
21.8 µM: TGI (SNB-75 CNS)
19 µM: TGI (KM12 colon)
59.4 µM: TGI (SF-295 CNS)
3.38 µM: TGI (ACHN renal)
6.64 µM: TGI (OVCAR-4 ovarian)
4.75 µM: TGI (MDA-MB-435)
11.5 µM: TGI (UACC-62 melanoma)
5.59 µM: TGI (T-47D breast)
12.7 µM: TGI (HOP-62 NSCLC)
12.3 µM: TGI (IGROV1 ovarian)
27.4 µM: TGI (SK-OV-3 ovarian)
15.8 µM: TGI (HCC-2998 colon)
7.88 µM: TGI (HOP-92 NSCLC)
5.67 µM: TGI (SN12C renal)
11.6 µM: TGI (MCF7 breast)
11.1 µM: TGI (DU-145 prostate)
4.01 µM: TGI (UO-31 renal)
5.86 µM: TGI (SK-MEL-2 melanoma)
51 µM: TGI (MDA-MB-231 breast)
8.28 µM: TGI (TK-10 renal)
16.4 µM: TGI (SK-MEL-5 melanoma)
4.65 µM: TGI (SW-620 colon)
> 100 µM: TGI (MOLT-4 leukemia) | TGI (K-562 leukemia) | TGI (SR leukemia)
6 µM: TGI (SF-539 CNS)
8.51 µM: TGI (HS 578T breast)
6.25 µM: TGI (HCT-15 colon)
12.4 µM: TGI (SK-MEL-28 melanoma)
4.18 µM: TGI (HCT-116 colon)
33.1 µM: TGI (NCI/ADR-RES ovarian)
17.9 µM: TGI (786-0 renal)
7.34 µM: TGI (HL-60(TB) leukemia)
10.4 µM: TGI (NCI-H23 lung) | TGI (M14 melanoma)
5.1 µM: TGI (MALME-3M melanoma)
3.88 µM: TGI (OVCAR-3 ovarian)
7.5 µM: TGI (BT-549 breast)
41.1 µM: TGI (OVCAR-5 ovarian)
88 µM: TGI (SNB-19 CNS)
8.16 µM: TGI (RPMI-8226 leukemia)
16.2 µM: TGI (NCI-H460 lung)
5.65 µM: TGI (CAKI-1 renal)
27 µM: TGI (A498 renal)

COc1cc2nc(-c3cccs3)nc(Nc3cccc(Cl)c3)c2cc1OC
56.8 µM: TGI (PC-3 prostate)
> 100 µM: TGI (RPMI-8226 leukemia) | TGI (SF-268 CNS) | TGI (SNB-75 CNS) | TGI (MOLT-4 leukemia) | TGI (IGROV1 ovarian) | TGI (NCI-H522 lung) | TGI (OVCAR-5 ovarian) | TGI (HL-60(TB) leukemia) | TGI (NCI/ADR-RES ovarian) | TGI (DU-145 prostate) | TGI (MALME-3M melanoma) | TGI (MCF7 breast) | TGI (U251 CNS) | TGI (UACC-62 melanoma) | TGI (NCI-H226 lung) | TGI (CCRF-CEM leukemia) | TGI (NCI-H460 lung) | TGI (SK-MEL-5 melanoma) | TGI (A498 renal) | TGI (CAKI-1 renal) | TGI (HT29 colon) | TGI (LOX IMVI melanoma) | TGI (T-47D breast) | TGI (MDA-MB-231 breast) | TGI (SK-MEL-28 melanoma) | TGI (SNB-19 CNS) | TGI (OVCAR-4 ovarian) | TGI (UO-31 renal) | TGI (HCT-15 colon) | TGI (HS 578T breast) | TGI (SW-620 colon) | TGI (MDA-MB-435) | TGI (HCT-116 colon) | TGI (UACC-257 melanoma) | TGI (K-562 leukemia) | TGI (SR leukemia) | TGI (ACHN renal) | TGI (KM12 colon) | TGI (SF-539 CNS) | TGI (A549 NSCLC) | TGI (786-0 renal) | TGI (SK-OV-3 ovarian) | TGI (NCI-H23 lung) | TGI (SN12C renal) | TGI (BT-549 breast) | TGI (M14 melanoma) | TGI (OVCAR-3 ovarian) | TGI (SK-MEL-2 melanoma) | TGI (OVCAR-8 ovarian) | TGI (EKVX NSCLC) | TGI (COLO 205 colon) | TGI (HOP-92 NSCLC)
69.2 µM: TGI (SF-295 CNS)
45.3 µM: TGI (HOP-62 NSCLC)
25.3 µM: TGI (TK-10 renal)
